Assay results published in patent publication US8987274B2, “Macrocycles that increase p53 activity and the uses thereof” (Merck Sharp & Dohme Corp, priority 2011, dated 2015).
Read-outs that look alike come from different tables or passages of the source.

Experiments:
HDM2 protein = HDM2 protein (Homo sapiens, UniProt Q00987); assay: fluorescence polarization screening assay (FP IC50); format: binding; details: first value of the cell (FP), read-out: FP/ SJSA IC50 (nM): FP IC50
Description: The compounds were evaluated to determine activity at the HDM2 protein by known methods such as the fluorescence polarization screening assay that measures the inhibitory concentration that achieves 50% of maximal activity (FP IC50) and the dissociation constant for inhibitor binding (FP Ki). [Zhang et al., J. Analytical Biochemistry 331: 138-146 (2004)].

SJSA = assay: Cell Viability Assay (CellTiter-Glo, ATP quantitation); format: cell-based; details: second value of the cell (SJSA cell viability, e.g. 72 hours), read-out: FP/ SJSA IC50 (nM): SJSA IC50
Description: Additionally, compounds were tested for activity at the HDM2 protein using the Cell Viability Assay, which measures the number of viable cells in culture after treatment with the inventive compound for a certain period of time e.g. 72 hours based on quantitation of the ATP present (Cell Viability. IC50). [CellTiter-Glo® Luminescent Cell Viability Assay from Promega].

Sequence of HDM2 protein (Q00987 whole entry): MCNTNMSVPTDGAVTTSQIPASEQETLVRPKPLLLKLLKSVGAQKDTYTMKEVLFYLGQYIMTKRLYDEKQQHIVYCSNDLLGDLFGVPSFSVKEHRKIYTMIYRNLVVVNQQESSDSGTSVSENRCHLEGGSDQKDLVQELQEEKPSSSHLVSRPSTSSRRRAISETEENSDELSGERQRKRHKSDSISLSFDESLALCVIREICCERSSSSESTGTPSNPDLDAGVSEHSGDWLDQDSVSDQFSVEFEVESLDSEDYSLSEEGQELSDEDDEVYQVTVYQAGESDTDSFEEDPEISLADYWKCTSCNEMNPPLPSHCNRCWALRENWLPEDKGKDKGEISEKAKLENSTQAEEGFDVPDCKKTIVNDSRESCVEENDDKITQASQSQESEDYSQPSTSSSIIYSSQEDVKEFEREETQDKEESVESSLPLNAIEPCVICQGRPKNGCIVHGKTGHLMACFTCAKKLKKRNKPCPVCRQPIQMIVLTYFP

SMILES	IC50 (HDM2 protein; class symbol) [nM]	IC50 (SJSA; class symbol) [nM]	IC50 (HDM2 protein; number) [nM]	IC50 (SJSA; number) [nM]
O=C(O)CCCOc1ccccc1N1CCN(C(=O)[C@]2(Oc3csc(C(F)(F)F)c3)CCCN3C(=O)c4c(C(F)(F)F)ccnc4OCCC/C=C\C[C@@H]32)CC1 [Compound 8, 4-[2-[4-[[(11aR)- 7,8,11,11a,12,13,14,15- OCTAHYDRO-17-OXO-1- (TRIFLUOROMETHYL)- 12(S)-[[5- (TRIFLUOROMETHYL)-3- THIENYL]OXY]-6H,17H- DIPYRIDO[1,2-e:2′,3′-b][1,5] OXAAZACYCLODODECIN- 12-YL]CARBONYL]-1- PIPERAZINYL]PHENOXY] BUTANOIC ACID.]	1 to 100	101 to 500		
O=C1c2c(C(F)(F)F)ccnc2OCCC/C=C\C[C@H]2N1CCC[C@@]2(Oc1csc(C(F)(F)F)c1)C(=O)N1CCN(c2ccccc2OCCO)CC1 [Compound 4, 1-[2-(2- HYDROXYETHOXY) PHENYL]-4-[[(11aR)- 7,8,11,11a,12,13,14,15- OCTAHYDRO-17-OXO-1- (TRIFLUOROMETHYL)- 12(S)-[[5- (TRIFLUOROMETHYL)-3- THIENYL]OXY]-6H,17H- DIPYRIDO[1,2-e:2′,3′-b][1,5] OXAAZACYCLODODECIN- 12-YL]CARBONYL] PIPERAZINE.]	1 to 100	501 to 1000		
O=C1c2c(C(F)(F)F)ccnc2OCCCC/C=C\C[C@H]2N1CCC[C@@]2(Oc1csc(C(F)(F)F)c1)C(=O)N1CCN(c2ccccc2OCCO)CC1 [Compound 6, 1-[[(12aR)- 6,7,8,9,12,12a,13,14,15,16- DECAHYDRO-18-OXO-1- (TRIFLUOROMETHYL)- 13-[[5- (TRIFLUOROMETHYL)-3- THIENYL]OXY]-18H- DIPYDRIDO[1,2-e:2′,3′-b][1,5] OXAAZACYCLOTRIDECIN- 13(S)-YL]CARBONYL]-4- [2-(2-HYDROXYETHOXY) PHENYL]PIPERAZINE.]			20	642
O=C1c2c(C(F)(F)F)ccnc2OCC/C=C/C[C@H]2N1CCC[C@@]2(Oc1csc(C(F)(F)F)c1)C(=O)N1CCN(c2ccccc2OCCO)CC1 [Compound 2, 1-[2-(2- HYDROXYETHOXY) PHENYL]-4-[[(10aR)- 6,7,10,10a,11,12,13,14- OCTAHYDRO-16- OXO-1- (TRIFLUOROMETHYL)- 11(S)-[[5- (TRIFLUOROMETHYL)-3- THIENYL]OXY]-16H- PYRIDO[1,2-e:2′,3′-b][1,5] OXAAZACYCLOUNDECIN- 11-YL]CARBONYL] PIPERAZINE.]	1 to 100	501 to 1000		
O=C1c2c(C(F)(F)F)ccnc2OCCCC[C@H]2N1CCC[C@@]2(Oc1csc(C(F)(F)F)c1)C(=O)N1CCN(c2ccccc2OCCO)CC1 [Compound 9, 1-[2-(2- HYDROXYETHOXY) PHENYL]-4-[[(9aR)- 7,8,9,9a,10,11,12,13- OCTAHYDRO-15-OXO-1- (TRIFLUOROMETHYL)- 10(S)-[[5- (TRIFLUOROMETHYL)- 3-THIENYL]OXY]-6H,15H- DIPYRIDO[1,2-e:2′,3′-b][1,5] OXAZECIN-10-YL] CARBONYL]PIPERAZINE.]	1000 to 3000			
O=C1c2c(C(F)(F)F)ccnc2OCCCCCCC[C@H]2N1CCC[C@@]2(Oc1csc(C(F)(F)F)c1)C(=O)N1CCN(c2ccccc2OCCO)CC1 [Compound 7, 1-[[(12aR)-6,7,8,9,10,11,12,12a, 13,14,15,16-DODECAHYDRO- 18-OXO-1- (TRIFLUOROMETHYL)- 13(S)-[[5- (TRIFLUOROMETHYL)-3- THIENYL]OXY]-18H- DIPYRIDO[1,2-e:2′,3′-b][1,5] OXAAZACYCLOTRIDECIN- 13-YL]CARBONYL]-4- [2-(2- HYDROXYETHOXY) PHENYL]PIPERAZINE.]	1 to 100			
COCCOc1ccccc1N1CCN(C(=O)[C@]2(Oc3csc(C(F)(F)F)c3)CCCN3C(=O)c4c(C(F)(F)F)ccnc4OCCCC/C=C/C[C@@H]32)CC1 [Compound 3, 1-[[(12aR)- 6,7,8,9,12,12a,13,14,15,16- DECAHYDRO-18-OXO-1- (TRIFLUOROMETHYL)- 13(S)-[[5- (TRIFLUOROMETHYL)-3- THIENYL]OXY]-18H- DIPYRIDO[1,2-e:2′,3′-b][1,5] OXAAZACYCLOTRIDECIN- 13-YL]CARBONYL]-4- [2-(2-METHOXYETHOXY) PHENYL]PIPERAZINE.]	1 to 100	1000 to 3000		

More lines, now with the values ahead:

IC50 (HDM2 protein; class symbol) [nM]	IC50 (SJSA; class symbol) [nM]	IC50 (HDM2 protein; number) [nM]	IC50 (SJSA; number) [nM]	SMILES
1 to 100	1000 to 3000			O=C1c2c(C(F)(F)F)ccnc2OCCCCCC[C@H]2N1CCC[C@@]2(Oc1csc(C(F)(F)F)c1)C(=O)N1CCN(c2ccccc2OCCO)CC1 [Compound 5, 1-[[(11aR)- 7,8,9,10,11,11a,12,13,14,15- DECAHYDRO-17-OXO-1- (TRIFLUOROMETHYL)- 12-[[5- (TRIFLUOROMETHYL)-3- THIENYL]OXY]-6H,17H- DIPYDRIDO[1,2-e:2′,3′-b][1,5] OXAAZACYCLODODECIN- 12(S)-YL]CARBONYL]-4- [2-(2-HYDROXYETHOXY) PHENYL]PIPERAZINE.]
1 to 100	101 to 500			COCCOc1ccccc1N1CCN(C(=O)[C@]2(Oc3csc(C(F)(F)F)c3)CCCN3C(=O)c4c(C(F)(F)F)ccnc4OCC/C=C/C[C@@H]32)CC1 [Compound 1, 1-[2-(2- METHOXYETHOXY) PHENYL]-4-[[(10aR)- 6,7,10,10a,11,12,13,14- OCTAHYDRO-16- OXO-1- (TRIFLUOROMETHYL)- 11(S)-[[5- (TRIFLUOROMETHYL)- 3-THIENYL]OXY]-16H- DIPYRIDO[1,2-e:2′3′-b][1,5] OXOAAZACYCLOUNDECIN- 11-YL]CARBONYL] PIPERAZINE.]
1 to 100	101 to 500			N#CC1(c2ccccc2OCCCC2(C(=O)O)CCC2)CCN(C(=O)[C@]2(Oc3csc(C(F)(F)F)c3)CCCN3C(=O)c4c(C(F)(F)F)ccnc4OCCCCCC[C@@H]32)CC1 [Compound 13, 1-[3-[2-[4-CYANO-1- [[(11a)-7,8,9,10,11,11a,12,13, 14,15-DECAHYDRO-17- OXO-1- (TRIFLUOROMETHYL)- 12(S)-[[5- (TRIFLUOROMETHYL)-3- THIENYL]OXY]-6H,17H- DIPYRIDO[1,2-e:2′,3′-b][1,5] OXAAZACYCLODODECIN- 12YL]CARBONYL]-4- PIPERIDINYL]PHENOXY] PROPYL]CYCLOBUTANE- CARBOXYLIC ACID.]
